Assay results as given in paper PMC2903464, “NPR-B natriuretic peptide receptors in human corneal epithelium: mRNA, immunohistochemistochemical, protein, and biochemical pharmacology studies” (Molecular Vision, 2010).

Target: T1, NPR-B (Homo sapiens, UniProt P20594)
T1 construct: gene NPR2; endogenous membrane guanylyl cyclase receptor in intact CEPI-17-CL4 cells; NPR-A also expressed; homodimer
T1 sequence (P20594 23-1047): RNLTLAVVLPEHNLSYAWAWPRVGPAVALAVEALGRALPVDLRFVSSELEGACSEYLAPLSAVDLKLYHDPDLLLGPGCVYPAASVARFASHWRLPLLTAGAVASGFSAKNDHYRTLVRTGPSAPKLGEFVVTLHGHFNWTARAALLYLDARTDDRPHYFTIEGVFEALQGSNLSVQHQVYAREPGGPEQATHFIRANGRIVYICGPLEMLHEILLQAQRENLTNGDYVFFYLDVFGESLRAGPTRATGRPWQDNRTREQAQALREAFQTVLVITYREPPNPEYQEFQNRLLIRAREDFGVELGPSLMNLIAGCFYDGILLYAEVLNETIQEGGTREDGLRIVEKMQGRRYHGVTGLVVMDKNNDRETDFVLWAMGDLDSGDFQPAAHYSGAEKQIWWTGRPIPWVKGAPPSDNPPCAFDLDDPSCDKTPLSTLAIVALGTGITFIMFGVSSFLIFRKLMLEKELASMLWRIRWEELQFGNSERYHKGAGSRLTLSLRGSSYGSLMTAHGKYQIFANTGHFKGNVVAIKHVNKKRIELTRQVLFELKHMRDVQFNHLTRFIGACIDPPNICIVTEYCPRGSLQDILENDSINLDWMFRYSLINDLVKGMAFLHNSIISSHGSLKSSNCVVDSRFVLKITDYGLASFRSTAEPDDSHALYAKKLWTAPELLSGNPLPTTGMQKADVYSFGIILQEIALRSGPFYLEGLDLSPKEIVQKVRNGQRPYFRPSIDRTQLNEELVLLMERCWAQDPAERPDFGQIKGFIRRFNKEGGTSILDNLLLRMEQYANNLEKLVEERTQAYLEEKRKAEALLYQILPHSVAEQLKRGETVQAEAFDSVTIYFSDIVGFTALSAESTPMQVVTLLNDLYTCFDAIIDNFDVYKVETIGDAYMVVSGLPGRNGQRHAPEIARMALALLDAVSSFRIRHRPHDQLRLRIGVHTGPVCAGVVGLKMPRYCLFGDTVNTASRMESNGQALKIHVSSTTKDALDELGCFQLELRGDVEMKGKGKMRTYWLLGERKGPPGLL
Assay: inhibition of CNP fragment-induced cGMP accumulation in CEPI-17-CL4 cells, enzyme immunoassay
Assay type: cell-based
Conditions: 30 nM CNP fragment as agonist, 1 mM IBMX, 23 °C, 20 min pre-incubation; partial inhibition; native cells expressing NPR-A and NPR-B; compound described as NPR-A antagonist

Ki: 5.3 ± 1.7 µM
SMILES: O=C1Nc2ccccc2C1=O [isatin]
